The values that follow come from patent publication US9388164B2, “Methods of using pyruvate kinase activators” (AGIOS PHARMACEUTICALS, INC, priority 2011, dated 2016).

Some results are limits rather than exact numbers.

Holding throughout (format): biochemical
The target in one experiment is PKR T384W (Homo sapiens, UniProt P30613). Briefly: PKR Mutant Assay, AC50 (T384W). As for the experimental part: (§1) • PKR or PKR mutant enzyme solution was diluted in assay buffer. • 2 μL of test compound was added into wells first, and then 180 μL reaction mix was added. • Reactions mixture with test compound was assembled except for ADP, and plates were stored for 60 minutes at room temperature. • 20 uL ADP was added to start reaction at room temperature and reaction progress was measured as changes in absorbance at 340 nm wavelength at room temperature.
Sequence of PKR T384W (P30613 whole entry T384M): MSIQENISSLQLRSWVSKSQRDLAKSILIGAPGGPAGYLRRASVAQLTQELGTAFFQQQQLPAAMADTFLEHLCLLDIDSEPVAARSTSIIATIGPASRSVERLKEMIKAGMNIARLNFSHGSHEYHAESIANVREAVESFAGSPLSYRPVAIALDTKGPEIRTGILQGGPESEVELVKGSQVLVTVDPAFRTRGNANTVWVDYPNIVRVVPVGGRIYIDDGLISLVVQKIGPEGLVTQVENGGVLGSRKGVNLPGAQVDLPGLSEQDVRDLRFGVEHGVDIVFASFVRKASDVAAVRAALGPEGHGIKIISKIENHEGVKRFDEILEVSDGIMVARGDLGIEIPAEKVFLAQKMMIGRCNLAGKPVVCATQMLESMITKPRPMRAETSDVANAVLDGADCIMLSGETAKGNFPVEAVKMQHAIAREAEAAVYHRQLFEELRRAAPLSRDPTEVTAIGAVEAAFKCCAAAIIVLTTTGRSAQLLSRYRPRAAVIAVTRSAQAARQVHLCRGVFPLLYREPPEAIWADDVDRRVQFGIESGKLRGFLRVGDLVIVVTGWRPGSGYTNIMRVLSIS
(§2) Test Compound Preparation: • Test compound stock was made at 100× concentration in 100% DMSO (10 mM) • 1 to 3 dilutions were made for 11 points (i.e. 50 μl of first concentration added to 100 μl 100% DMSO to yield 3.33 mM, 50 μl of this added to 100 μl DMSO to yield 1.11 mM, and so forth) • 1 to 100 dilution into assay (2 μl in 200 μl) yielded starting concentration of 100 μM, decreasing 3 fold for 11 points.

The target of a further experiment is PKR R510Q (Homo sapiens, UniProt P30613, R510Q). Briefly: PKR Mutant Assay, AC50 (R510Q). As for the experimental part:
as §1, §2

In the next experiment the target is PKR G364D (Homo sapiens, UniProt P30613, G364D). Briefly: PKR Mutant Assay, AC50 (G364D). As for the experimental part:
as §1, §2

In another experiment the target is PKR R532W (Homo sapiens, UniProt P30613, R532W). Briefly: PKR Mutant Assay, AC50 (R532W). As for the experimental part: as §1, §2
Sequence of PKR R532W (P30613 whole entry R532W): as the sequence (P30613 whole entry T384M) above, with M384T, R532W counted along it
In another experiment the target is PKR R479H (Homo sapiens, UniProt P30613, R479H). Briefly: PKR Mutant Assay, AC50 (R479H). As for the experimental part: as §1, §2
Sequence of PKR R479H (P30613 whole entry R479H): as the sequence (P30613 whole entry T384M) above, with M384T, R479H counted along it

Sequence of PKR R510Q (P30613 whole entry R510Q): as the sequence (P30613 whole entry T384M) above, with M384T, R510Q counted along it
Sequence of PKR G364D (P30613 whole entry G364D): as the sequence (P30613 whole entry T384M) above, with G364D, M384T counted along it

On to `O=C(c1ccc(NS(=O)(=O)c2cccc3cccnc23)cc1)N1CC(O)(c2ccccc2)C1` [drawing 106], for which the AC50 on PKR T384W was 101 to 500 nM; on PKR R510Q, > 500 nM; on PKR G364D, > 500 nM; at PKR R532W, 101 to 500 nM; at PKR R479H it was > 500 nM.
